Measurements published in PMC5489047, “Molecular glues for manipulating enzymes: trypsin inhibition by benzamidine-conjugated molecular glues” (Chemical Science, 2015).

What was measured:
trypsin [1] = molecular target: T1, trypsin (Sus scrofa, UniProt P00761); assay: Circular dichroism (CD) spectral titration of trypsin, Hill equation fit; format: binding; details: trypsin 5 μM, CD at 237 nm, 25 °C, Tris–HCl buffer (50 mM Tris–HCl, 10 mM CaCl2, pH 8.0), read-out: association constant (K assoc) with trypsin (converted)
T1 construct: purchased Wako; host or cells: porcine pancreas (natural source)
T1 sequence (P00761 9-231): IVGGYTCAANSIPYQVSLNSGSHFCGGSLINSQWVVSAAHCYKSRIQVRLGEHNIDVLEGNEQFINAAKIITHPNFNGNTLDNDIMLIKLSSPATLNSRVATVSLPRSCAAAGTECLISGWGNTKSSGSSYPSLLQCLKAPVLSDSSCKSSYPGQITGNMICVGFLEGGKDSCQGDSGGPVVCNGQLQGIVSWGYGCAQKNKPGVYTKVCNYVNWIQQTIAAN
Source text: We first investigated the effect of conjugation of molecular glues to BA on the binding affinity for trypsin. Trypsin is known to alter its conformation upon interaction with metal ions,[24] polymers[25] and proteins,[26] resulting in circular dichroism (CD) spectral changes. Upon mixing with Glue10–BA, trypsin also changed its CD spectrum. […] According to the reported method,[27],[28] we estimated the association constant (K assoc) of Glue10–BA with trypsin to be 5.5 × 10^5 M^–1 by fitting the fractions of bound trypsin (Fig. 3, red) to the Hill equation.[27],[28] […]
Fig. 3 Circular dichroism (CD) spectral titration profiles of trypsin (5 μM) at 237 nm with molecular glues Glue29–BA (brown; 0–2.5 μM), Glue10–BA (red; 0–7 μM), Glue10–Ph (green; 0–12 μM) and ^mGlue27–BA (purple; 0–50 μM), together with reference TEG–BA (blue; 0–200 μM), at 25 °C in Tris–HCl buffer (50 mM Tris–HCl, 10 mM CaCl2, pH 8.0). The fractions of bound trypsin were calculated from (I – I 0)/(I sat – I 0), where I 0, I and I sat represent the CD intensities before titration, observed with titrants and at the saturation point, respectively. […]
The association constants (K assoc) were calculated based on the Hill equation by plotting the fractions of bound trypsin versus the concentrations of a titrant. […]

trypsin [2] = molecular target: T1, trypsin; assay: Trypsin activity assay (TAME hydrolysis, absorption at 247 nm); format: biochemical; details: trypsin 20 nM, TAME 1 mM
Source text: Trypsin hydrolyses peptide linkages at the carboxyl side of lysine and arginine residues.[29] As already described in Fig. 2a, this protease activity is inhibited by BA.[10] Considering the exceptionally high affinity of Glue29–BA for trypsin, we expected that this BA-appended molecular glue might be the best inhibitor among those listed in Fig. 1. However, as observed by dynamic light scattering (DLS; Fig. S12 ^†), trypsin/Glue29–BA, in contrast with other complexes such as trypsin/Glue10–BA and trypsin/Glue10–Ph, tends to form large aggregates (>200 nm), most likely due to the formation of physical crosslinks between its excessively long glue moiety and trypsin. […] We presume that the poor conformational flexibility of the in-chain Gu^+ units in the glue moiety hinders the ability of the conjugated BA terminus to properly block the substrate-binding site of trypsin. […]
To a Tris–HCl buffer (50 mM Tris–HCl, 10 mM CaCl2, pH 8.0) solution of trypsin (20 nM) was added a Tris–HCl buffer solution of TEG–BA, and the mixture was incubated at 25 °C for 1 min. […] The trypsin activity was determined using pseudo-first order reaction kinetics and normalized to that of untreated trypsin. The trypsin activities in the presence of Gluen–BA, ^mGluen–BA and Gluen–Ph were likewise evaluated.

**Q.** `[N-]=[N+]=NCCOCCOCCOCCNC(=O)CCCC(=O)Nc1ccc(C(=N)N)cc1` [TEG–BA] was tested. Which Kd (trypsin [1]) did it give?
**A.** 62.5 µM

**Q.** And the “inhibition of TAME hydrolysis by trypsin at 10 μM” value (trypsin [2]; 10 μM compound)?
**A.** did not exhibit detectable inhibition

**Q.** What about the IC50 (trypsin [2]; 25 °C, Tris–HCl buffer pH 8.0, read-out: half-maximal inhibitory concentration (IC50)) of the same compound?
**A.** 79 µM
